# Earlier results, collected in patent US11160861B2, “Adjuvanting systems and water-free vaccine compositions comprising a polyI:C polynucleotide adjuvant and a lipid-based adjuvant” (priority 2015, dated 2021).
# Tests used:
# [1] = test system: murine DCs; conditions: in vitro stimulation of murine DCs, small amounts of adjuvant relative to other TLR agonists (Welters 2007)
# [2] = variety of animal models and Phase I clinical trial in humans (Moyle 2008; Wiedemann 1991)
smiles,measurement,setting,value
"CCCCCCCCCCCCCCCC(=O)N[C@@H](CSC[C@@H](COC(=O)CCCCCCCCCCCCCCC)OC(=O)CCCCCCCCCCCCCCC)C(=O)O [Pam3Cys, tripalmitoyl-S-glyceryl-cysteine]","Production of pro-inflammatory cytokines IL-12p40, IL-6 and TNFα",[1],high levels
same,Side effects,[2],no reported side effects
